# How the values were obtained:
# [1] = biological target: T1, Organic cation transporter 1 (btOCT1) (Bos taurus, UniProt A7MBE0, N107Q/N71Q/N91Q); test: SPR kinetics, purified btOCT1 over streptavidin-immobilised PGE2-PEG11-Biotin (PEG11-Biotin control); steady-state k […]; format: binding
# T1 construct: gene SLC22A1; purified tag-free btOCT1 triple N-glycosylation mutant (NP_001094568.1), expressed in Pichia pastoris
# T1 sequence (A7MBE0 1-563 N71Q/N91Q/N107Q): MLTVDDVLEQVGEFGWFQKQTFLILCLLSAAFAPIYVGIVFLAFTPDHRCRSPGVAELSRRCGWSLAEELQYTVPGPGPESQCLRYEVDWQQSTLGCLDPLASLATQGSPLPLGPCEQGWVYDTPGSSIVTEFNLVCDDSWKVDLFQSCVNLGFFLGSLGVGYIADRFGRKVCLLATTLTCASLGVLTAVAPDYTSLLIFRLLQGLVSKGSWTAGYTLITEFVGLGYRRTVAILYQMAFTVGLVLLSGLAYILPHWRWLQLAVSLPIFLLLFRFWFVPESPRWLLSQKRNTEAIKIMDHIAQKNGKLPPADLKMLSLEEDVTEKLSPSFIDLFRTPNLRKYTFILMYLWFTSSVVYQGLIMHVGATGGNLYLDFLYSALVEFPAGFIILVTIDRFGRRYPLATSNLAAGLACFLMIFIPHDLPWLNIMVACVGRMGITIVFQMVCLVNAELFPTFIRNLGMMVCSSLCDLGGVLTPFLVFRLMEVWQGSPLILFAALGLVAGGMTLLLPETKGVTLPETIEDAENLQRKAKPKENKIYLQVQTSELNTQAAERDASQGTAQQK
# [2] = biological target: T2, Organic cation transporter 1 (btOCT1) (Bos taurus, UniProt A7MBE0, N71Q/N91Q/N107Q); test: fluorescence polarization with purified btOCT1; rhodamine […] alone does not bind; format: binding
# T2 construct: gene SLC22A1; purified tag-free btOCT1 triple N-glycosylation mutant (NP_001094568.1), expressed in Pichia pastoris
# T2 sequence (A7MBE0 1-563 N71Q/N91Q/N107Q): T1 sequence (A7MBE0 1-563 N71Q/N91Q/N107Q)
Compound,Kd [1],Kd [2]
CCCCC[C@H](O)/C=C/[C@H]1[C@H](O)CC(=O)[C@@H]1C/C=C\CCCC(=O)O [Prostaglandin E2],~100 nM,–
PGE2-Rhodamine,–,540 nM
